Assay results taken from the supplement of paper PMC7840683.
± gives the standard deviation of the averaged measurements.

Test system: HepaRG
Experiment: LDH release cytotoxicity, % of total lysis control; higher = more cytotoxic
Conditions: 48 h
Summary of the method: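 HepaRG cells from a single lot were plated on collagen I-coated 96-well plates and treated in duplicate for 48 h with eight-point half-log series of test chemicals, starting at 100 µM, in serum-free induction medium containing 0.5% DMSO. Total lysis wells were given 0.1% Triton X. LDH released into 50 µL of spent medium was measured as resorufin fluorescence with CytoTox-ONE on a Tecan Safire. Percent cytotoxicity was normalized to on-plate vehicle and total lysis controls and then averaged across duplicates.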

| Structure (SMILES) | LDH release cytotoxicity (0.03162 µM) [%] | LDH release cytotoxicity (0.1 µM) [%] | LDH release cytotoxicity (0.3162278 µM) [%] | LDH release cytotoxicity (1 µM) [%] | LDH release cytotoxicity (3.16228 µM) [%] | LDH release cytotoxicity (10 µM) [%] | LDH release cytotoxicity (31.6228 µM) [%] | LDH release cytotoxicity (100 µM) [%] | other results |
| --- | --- | --- | --- | --- | --- | --- | --- | --- | --- |
| CCCCOC(=O)CCCCCCCCC(=O)OCCCC [Dibutyl decanedioate] | -1.01 ± 0.4 | -1.61 ± 0.65 | -1.81 ± 0.16 | -2.3 ± 0.41 | -2.91 ± 0.79 | -1.92 ± 0.027 | -1.43 ± 1 | 0.112 ± 0.92 |  |
| CCCCOC(=O)c1ccccc1C(=O)OCCCC [Dibutyl phthalate] | 6.54 ± 1.9 | 3.46 ± 1.6 | 3.28 ± 0.066 | 4.3 ± 0.12 | 4.61 ± 0.89 | 4.63 ± 1 | 6.08 ± 2 | 9.42 ± 0.15 |  |
| COc1c(Cl)ccc(Cl)c1C(=O)O [Dicamba] | -2.43 ± 1.4 | -1.52 ± 0.043 | -0.804 ± 0.36 | -2.09 ± 0.64 | -0.996 ± 0.75 | -0.906 ± 0.014 | -0.688 ± 0.24 | 0.691 ± 0.52 |  |
| N#Cc1c(Cl)cccc1Cl [Dichlobenil] | 0.00697 ± 0.72 | -0.347 ± 1.1 | -1.05 ± 0.013 | -1.65 ± 0.47 | 0.43 ± 1.9 | 0.582 ± 0.39 | 1.87 ± 0.054 | 1.99 ± 1.2 |  |
| O=C(O)C(Cl)Cl [Dichloroacetic acid] | -1.93 ± 1.3 | -1.93 ± 0.89 | -1.5 ± 1.6 | -2.38 ± 1.1 | -2.6 ± 1.3 | -1.71 ± 0.32 | -2.34 ± 0.81 | 0.0869 ± 1.1 |  |
| Clc1ccc(C(c2ccc(Cl)cc2)C(Cl)(Cl)Cl)cc1 [Dichlorodiphenyltrichloroethane] | 0.0415 ± 1 | 0.0911 ± 1 | 0.015 ± 0.3 | 0.105 ± 0.45 | 0.853 ± 0.39 | 0.81 ± 0.52 | 0.658 ± 0.99 | 1.05 ± 0.28 |  |
| CC(Oc1ccc(Cl)cc1Cl)C(=O)O (stereo not given) [Dichlorprop] | -0.461 ± 0.19 | -0.49 ± 0.4 | -0.517 ± 1.3 | 0.354 ± 0.43 | 0.35 ± 0.52 | 0.358 ± 0.17 | 0.57 ± 0.15 | 1.75 ± 0.062 |  |
| COP(=O)(OC)OC=C(Cl)Cl [Dichlorvos] | -0.581 ± 0.43 | -0.968 ± 0.24 | -1.1 ± 0.092 | -0.845 ± 0.11 | -0.267 ± 0.61 | -0.149 ± 0.26 | -0.147 ± 0.48 | 2.09 ± 0.43 |  |
| O=C(O)Cc1ccccc1Nc1c(Cl)cccc1Cl [Diclofenac sodium] | 0.371 ± 0.76 | -0.605 ± 0.41 | -1.36 ± 0.43 | -0.678 ± 0.21 | -0.378 ± 0.25 | -0.578 ± 0.3 | 1.19 ± 0.14 | 12 ± 1 |  |
| Nc1c(Cl)cc([N+](=O)[O-])cc1Cl [Dicloran] | -0.748 ± 0.034 | -1.57 ± 0.49 | -1.57 ± 0.62 | -2.63 ± 0.73 | -1.28 ± 0.36 | -1.61 ± 0.56 | -0.997 ± 0.16 | 0.0971 ± 0.81 |  |
| CCOc1nc(F)cc2nc(S(=O)(=O)Nc3c(Cl)cccc3Cl)nn12 [Diclosulam] |  |  |  |  |  |  |  |  | LDH release cytotoxicity (0.01581 µM): -5.4 ± 0.3%; LDH release cytotoxicity (0.05 µM): -5.8 ± 0.38%; LDH release cytotoxicity (0.1581139 µM): -6.31 ± 0.31%; LDH release cytotoxicity (0.5 µM): -6.08 ± 0.24%; LDH release cytotoxicity (1.5811388 µM): -6.09 ± 0.25%; LDH release cytotoxicity (5 µM): -5.21 ± 0.053%; LDH release cytotoxicity (15.8114 µM): -4.75 ± 0.14%; LDH release cytotoxicity (50 µM): -3.63 ± 0.7% |
| OC(c1ccc(Cl)cc1)(c1ccc(Cl)cc1)C(Cl)(Cl)Cl [Dicofol] | -4.47 ± 0.11 | -4.19 ± 0.15 | -3.36 ± 1.2 | -3.88 ± 0.76 | -3.71 ± 1.1 | -3.02 ± 0.35 | -3.41 ± 0.081 | -0.0654 ± 3 |  |
| COP(=O)(OC)OC(C)=CC(=O)N(C)C [Dicrotophos] | -2.01 ± 0.28 | -1.23 ± 0.051 | -1.47 ± 0.12 | -2.46 ± 0.19 | -1.22 ± 0.6 | -0.345 ± 0.14 | 1.7 ± 0.058 | -0.538 ± 0.6 |  |
| CC(C)(OOC(C)(C)c1ccccc1)c1ccccc1 [Dicumyl peroxide] | -3.28 ± 0.56 | -3.3 ± 0.54 | -1.36 ± 0.58 | -1.54 ± 1 | -0.973 ± 1.9 | -1.43 ± 0.79 | -0.756 ± 0.26 | -0.201 ± 1.3 |  |
| C1CCC(SSC2CCCCC2)CC1 [Dicyclohexyl disulfide] | -0.985 ± 0.37 | -0.62 ± 0.75 | -0.405 ± 0.35 | -1.38 ± 0.086 | -2 ± 0.2 | -0.29 ± 0.24 | 2.64 ± 0.37 | 68.4 ± 6.2 |  |
| CCCCCCCCCC[N+](C)(C)CCCCCCCCCC [Didecyldimethylammonium chloride] |  |  |  |  |  |  |  |  | LDH release cytotoxicity (0.0317809 µM): -1.08 ± 1.2%; LDH release cytotoxicity (0.1005 µM): -0.913 ± 0.75%; LDH release cytotoxicity (0.317809 µM): -0.501 ± 0.85%; LDH release cytotoxicity (1.005 µM): -2.08 ± 0.42%; LDH release cytotoxicity (3.17809 µM): -0.414 ± 0.69%; LDH release cytotoxicity (10.05 µM): 0.276 ± 0.56%; LDH release cytotoxicity (31.7809 µM): 0.202 ± 0.086%; LDH release cytotoxicity (100.5 µM): 1.33 ± 0.6% |
| ClC1=C(Cl)C2(Cl)C3C4CC(C5OC45)C3C1(Cl)C2(Cl)Cl (stereo not given) [Dieldrin] | -0.556 ± 0.44 | -1.67 ± 0.84 | -1.33 ± 0.11 | -1.987 ± 0.015 | -2.14 ± 0.65 | -0.0152 ± 1.5 | -0.473 ± 0.01 | 2.21 ± 0.079 |  |
| OCCNCCO [Diethanolamine] |  | -1.45 ± 1.3 |  | -2.4 ± 0.18 | -2.41 ± 0.4 | -1.71 ± 0.48 | -0.726 ± 0.53 | 0.309 ± 0.55 | LDH release cytotoxicity (0.031623 µM): -1.15 ± 0.87%; LDH release cytotoxicity (0.316228 µM): -1.83 ± 0.56% |
| CCOC(=O)CCC(=O)OCC [Diethyl butanedioate] | -2.6 ± 0.22 | -1.75 ± 0.66 | -2.02 ± 0.1 | -1.99 ± 0.076 | -0.438 ± 0.84 | -0.384 ± 0.28 | 16 ± 3.3 | 83.2 ± 4.8 |  |
| CCOC(=O)c1ccccc1C(=O)OCC [Diethyl phthalate] | -0.196 ± 0.57 | -0.436 ± 0.76 | -0.318 ± 0.092 | -1.12 ± 0.43 | -0.475 ± 0.13 | -1.03 ± 0.2 | -0.196 ± 0.45 | 5.77 ± 0.6 |  |
